How the values were obtained:
[1] = molecular target: kinase panel containing either 386 or 392 distinct kinases; test: Kinase selectivity score S10 from competition binding panel; details: 10 μM, panel of 386 or 392 distinct kinases
Procedure, shortened: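 Compounds at 10 μM competed against immobilised affinity ligands for T7 phage-fused or HEK-293-expressed DNA-tagged kinases, 1 h at room temperature; bound kinase eluted and quantified by qPCR. S10 = fraction of distinct non-mutant kinases with percent of DMSO control below 10.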

PDGFRβ = molecular target: T1, PDGFRβ (Homo sapiens, UniProt P09619); test: Competition binding assay, PDGFRβ Kd; details: competition binding
T1 construct: made in house
Procedure, shortened: (§1)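 Compound displacement of kinase from bead-immobilized ligand is measured by qPCR after 1 h equilibration at room temperature. Kinases are T7 phage fusions or DNA-tagged HEK-293 products.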

CSF1R [2] = molecular target: T2, CSF1R (Homo sapiens, UniProt P07333); test: Competition binding assay, CSF1R Kd; parameters: made in house; details: competition binding
Procedure, shortened: as §1

KIT = molecular target: T3, KIT (Homo sapiens, UniProt P10721); test: Competition binding assay, KIT Kd; details: competition binding
T3 construct: made in house
Procedure, shortened: as §1

CSF1R [3] = molecular target: T2, CSF1R; test: HEK293 CSF1R phosphorylation MSD assay; type: cell-based; parameters: expressed in transfected cells; host or cells: HEK293; details: HEK293 cells, M-CSF stimulated CSF1R phosphorylation, MSD; read-out: HEK293 pCSF1R M-CSF MSD:IC50
Procedure, shortened: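 HEK293 cells expressing CSF1R-FKBP were pretreated 2 h at 37° C with 9 half-log concentrations of compound (0.5% DMSO final), then stimulated 5 min with 50 ng/mL human M-CSF. Lysates captured on biotin-FK506 plates; phosphotyrosine detected by MSD electrochemiluminescence. IC50 versus DMSO, averaged from duplicate plates.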

T3 sequence (P10721 26-976): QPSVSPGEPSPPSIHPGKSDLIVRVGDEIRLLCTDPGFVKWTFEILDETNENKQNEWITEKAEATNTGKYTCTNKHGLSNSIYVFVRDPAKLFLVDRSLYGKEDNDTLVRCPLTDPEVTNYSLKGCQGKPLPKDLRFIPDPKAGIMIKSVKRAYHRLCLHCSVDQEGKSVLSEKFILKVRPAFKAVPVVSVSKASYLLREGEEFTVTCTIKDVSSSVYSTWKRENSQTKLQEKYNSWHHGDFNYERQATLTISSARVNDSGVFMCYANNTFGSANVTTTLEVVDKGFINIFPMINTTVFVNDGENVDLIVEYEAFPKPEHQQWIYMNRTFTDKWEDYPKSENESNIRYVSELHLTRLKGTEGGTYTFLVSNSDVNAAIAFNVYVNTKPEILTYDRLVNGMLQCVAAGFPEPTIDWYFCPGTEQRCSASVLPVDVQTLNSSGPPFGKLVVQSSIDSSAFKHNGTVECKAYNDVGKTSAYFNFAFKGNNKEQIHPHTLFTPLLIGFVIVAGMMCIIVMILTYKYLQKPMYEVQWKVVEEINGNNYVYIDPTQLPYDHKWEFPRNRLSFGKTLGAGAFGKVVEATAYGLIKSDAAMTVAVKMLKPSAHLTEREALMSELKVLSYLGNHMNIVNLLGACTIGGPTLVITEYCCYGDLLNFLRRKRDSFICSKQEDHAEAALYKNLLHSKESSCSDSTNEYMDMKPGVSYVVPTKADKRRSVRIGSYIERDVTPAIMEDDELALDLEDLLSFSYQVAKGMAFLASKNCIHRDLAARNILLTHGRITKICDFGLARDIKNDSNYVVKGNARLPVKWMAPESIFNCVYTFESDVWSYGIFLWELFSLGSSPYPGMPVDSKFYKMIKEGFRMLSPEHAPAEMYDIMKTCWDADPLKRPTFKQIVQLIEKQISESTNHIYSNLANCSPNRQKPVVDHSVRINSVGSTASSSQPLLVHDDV
T2 sequence (P07333 20-972): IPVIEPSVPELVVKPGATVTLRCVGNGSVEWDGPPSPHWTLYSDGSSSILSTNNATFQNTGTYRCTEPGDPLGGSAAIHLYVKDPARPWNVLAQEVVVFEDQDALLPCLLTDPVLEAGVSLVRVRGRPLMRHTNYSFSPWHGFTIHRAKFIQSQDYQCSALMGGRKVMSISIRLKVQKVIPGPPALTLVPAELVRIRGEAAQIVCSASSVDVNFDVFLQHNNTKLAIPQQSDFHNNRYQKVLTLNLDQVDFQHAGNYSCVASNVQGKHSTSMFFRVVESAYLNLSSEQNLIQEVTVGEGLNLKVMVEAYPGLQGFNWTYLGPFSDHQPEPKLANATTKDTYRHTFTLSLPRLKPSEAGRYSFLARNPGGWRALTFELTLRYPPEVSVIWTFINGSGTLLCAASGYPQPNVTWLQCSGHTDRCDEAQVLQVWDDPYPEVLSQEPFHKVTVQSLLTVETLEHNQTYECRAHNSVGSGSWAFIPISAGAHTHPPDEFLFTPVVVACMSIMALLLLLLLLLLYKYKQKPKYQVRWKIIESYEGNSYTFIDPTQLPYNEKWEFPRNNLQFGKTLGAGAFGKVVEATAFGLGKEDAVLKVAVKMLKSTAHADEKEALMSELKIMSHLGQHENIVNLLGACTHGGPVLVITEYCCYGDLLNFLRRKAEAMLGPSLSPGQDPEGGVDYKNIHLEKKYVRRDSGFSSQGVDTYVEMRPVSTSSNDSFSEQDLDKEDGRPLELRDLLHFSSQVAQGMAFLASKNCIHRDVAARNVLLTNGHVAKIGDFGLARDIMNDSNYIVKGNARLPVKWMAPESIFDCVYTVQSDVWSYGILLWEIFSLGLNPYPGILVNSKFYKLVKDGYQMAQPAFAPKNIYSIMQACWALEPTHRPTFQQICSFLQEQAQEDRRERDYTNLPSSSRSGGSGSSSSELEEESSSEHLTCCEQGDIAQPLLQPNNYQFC
T1 sequence (P09619 33-1106): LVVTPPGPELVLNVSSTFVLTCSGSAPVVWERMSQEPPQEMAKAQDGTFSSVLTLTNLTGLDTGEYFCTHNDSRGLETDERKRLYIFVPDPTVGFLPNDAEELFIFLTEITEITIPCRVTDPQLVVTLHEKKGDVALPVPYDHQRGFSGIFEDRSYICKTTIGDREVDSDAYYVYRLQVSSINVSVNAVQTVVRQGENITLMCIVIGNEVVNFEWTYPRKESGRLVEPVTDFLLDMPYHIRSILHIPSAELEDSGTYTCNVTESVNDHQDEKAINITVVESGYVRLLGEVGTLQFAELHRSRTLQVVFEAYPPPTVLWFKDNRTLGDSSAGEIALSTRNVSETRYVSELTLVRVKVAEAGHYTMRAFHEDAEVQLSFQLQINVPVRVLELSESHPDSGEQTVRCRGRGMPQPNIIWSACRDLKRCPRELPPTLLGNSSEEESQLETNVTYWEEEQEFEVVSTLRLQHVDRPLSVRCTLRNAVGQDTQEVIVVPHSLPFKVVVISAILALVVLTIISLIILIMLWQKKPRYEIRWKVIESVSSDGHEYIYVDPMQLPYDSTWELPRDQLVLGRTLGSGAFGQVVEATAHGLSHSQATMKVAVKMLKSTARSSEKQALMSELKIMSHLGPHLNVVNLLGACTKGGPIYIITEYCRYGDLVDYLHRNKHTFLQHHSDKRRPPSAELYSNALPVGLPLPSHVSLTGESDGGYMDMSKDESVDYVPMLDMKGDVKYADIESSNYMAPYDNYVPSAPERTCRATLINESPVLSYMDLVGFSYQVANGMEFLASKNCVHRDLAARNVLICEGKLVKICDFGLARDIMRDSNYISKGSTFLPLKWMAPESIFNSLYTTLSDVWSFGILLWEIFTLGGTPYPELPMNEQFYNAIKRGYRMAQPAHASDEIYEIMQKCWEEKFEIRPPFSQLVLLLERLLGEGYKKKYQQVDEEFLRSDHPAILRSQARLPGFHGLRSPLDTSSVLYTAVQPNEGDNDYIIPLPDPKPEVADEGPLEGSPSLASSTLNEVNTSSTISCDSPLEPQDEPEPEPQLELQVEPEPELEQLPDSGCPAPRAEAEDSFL

Q: Which “Kinase specificity S(10)” value [1] does the source give for `O[C@@H]1CCCC[C@H]1Nc1nc2ccc(Cn3cnc4cc(F)cc(F)c43)cc2s1` [Example 148, (1R,2R)-2-((6-((5,7-difluoro-1H-benzo[d]imidazol-1-yl)methyl)benzo[d]thiazol-2-yl)amino)cyclohexanol] here?
A: A (A≤0.01)

Q: And the Kd (PDGFRβ)?
A: 50 to 500 nM

Q: And the Kd (CSF1R [2])?
A: ≤ 5 nM

Q: What about the Kd (KIT) of the same compound?
A: ≤ 100 nM

Q: What about the IC50 (CSF1R [3]) of the same compound?
A: 50 to 200 nM

Q: Which “Kinase specificity S(10)” value [1] does the source give for `O[C@@H]1CCCC[C@H]1Nc1nc2ccc(Cn3cnc4cc(Cl)c(Cl)nc43)cc2s1` [Example 137, (1R,2R)-2-((6-((5,6-dichloro-3H-imidazo[4,5-b]pyridin-3-yl)methyl)benzo[d]thiazol-2-yl)amino)cyclohexanol] here?
A: A (A≤0.01)

Q: What about the Kd (PDGFRβ) of the same compound?
A: ≤ 50 nM

Q: And the Kd (CSF1R [2])?
A: ≤ 5 nM

Q: And the Kd (KIT)?
A: ≤ 100 nM

Q: And the IC50 (CSF1R [3])?
A: ≤ 50 nM

Q: How did the “Kinase specificity S(10)” value [1] turn out when `COc1ccc2ncn(Cc3ccc4nc(N[C@@H]5CCCC[C@H]5O)oc4c3)c2c1` [Example 152, (1R,2R)-2-((6-((6-methoxy-1H-benzo[d]imidazol-1-yl)methyl)benzo[d]oxazol-2-yl)amino)cyclohexanol] was run?
A: B (0.01<B≤0.02)

Q: And the Kd (PDGFRβ)?
A: 50 to 500 nM

Q: What about the Kd (CSF1R [2]) of the same compound?
A: 5 to 20 nM

Q: And the Kd (KIT)?
A: ≤ 100 nM

Q: What about the IC50 (CSF1R [3]) of the same compound?
A: ≤ 50 nM

Q: Which results are given for `O[C@@H]1CCCC[C@H]1Nc1nc2c(F)cc(Cn3cnc4cccnc43)c(F)c2s1` [Example 168, (1R,2R)-2-((6-((3H-imidazo[4,5-b]pyridin-3-yl)methyl)-4,7-difluorobenzo[d]thiazol-2-yl)amino)cyclohexanol]?
A: Kinase specificity S(10) [1]: A (A≤0.01); Kd (PDGFRβ): > 2000 nM; Kd (CSF1R [2]): 5 to 20 nM; Kd (KIT): > 2000 nM; IC50 (CSF1R [3]): > 500 nM

Q: With `O[C@@H]1CCCC[C@H]1Nc1nc2ncc(Cn3cnc4cccnc43)cc2s1` [Example 114, (1R,2R)-2-((6-((3H-imidazo[4,5-b]pyridine-3-yl)methyl)thiazolo[4,5-b]pyridine-2-yl)amino)cyclohexanol] as the compound, how does the “Kinase specificity S(10)” value [1] read?
A: A (A≤0.01)

Q: What about the Kd (PDGFRβ) of the same compound?
A: 500 to 2000 nM

Q: And the Kd (CSF1R [2])?
A: > 50 nM

Q: And the Kd (KIT)?
A: 100 to 500 nM

Q: And the IC50 (CSF1R [3])?
A: 50 to 200 nM

Q: What does the source list for `CC(C)(O)c1cnc2c(c1)ncn2Cc1ccc2nc(N[C@@H]3CCCC[C@H]3O)sc2c1` [Example 109, (1R,2R)-2-((6-((6-(2-hydroxypropan-2-yl)-3H-imidazo[4,5-b]pyridin-3-yl)methyl)benzo[d]thiazol-2-yl)amino)cyclohexanol]?
A: Kinase specificity S(10) [1]: A (A≤0.01); Kd (PDGFRβ): 50 to 500 nM; Kd (CSF1R [2]): 20 to 50 nM; Kd (KIT): 100 to 500 nM; IC50 (CSF1R [3]): 50 to 200 nM

Q: How did the “Kinase specificity S(10)” value [1] turn out when `O[C@@H]1[C@H](O)CCC[C@H]1Nc1nc2ccc(Cc3cnc4cc(-n5cccn5)ccn34)cc2s1` [Example 229, (1R,2S,3R)-3-((6-((7-(1H-pyrazol-1-yl)imidazo[1,2-a]pyridin-3-yl)methyl)benzo[d]thiazol-2-yl)amino)cyclohexane-1,2-diol] was run?
A: A (A≤0.01)

Q: And the Kd (PDGFRβ)?
A: ≤ 50 nM

Q: What about the Kd (CSF1R [2]) of the same compound?
A: 5 to 20 nM

Q: What about the Kd (KIT) of the same compound?
A: ≤ 100 nM

Q: And the IC50 (CSF1R [3])?
A: ≤ 50 nM

Q: What does the source list for `O[C@@H]1[C@H](O)CCC[C@H]1Nc1nc2ccc(Cn3cnc4cc(N5CCOCC5)ccc43)cc2s1` [Example 235, (1R,2S,3R)-3-((6-((5-morpholino-1H-benzo[d]imidazol-1-yl)methyl)benzo[d]thiazol-2-yl)amino)cyclohexane-1,2-diol]?
A: Kinase specificity S(10) [1]: A (A≤0.01); Kd (PDGFRβ): ≤ 50 nM; Kd (CSF1R [2]): 5 to 20 nM; Kd (KIT): ≤ 100 nM; IC50 (CSF1R [3]): 50 to 200 nM

Q: How did the “Kinase specificity S(10)” value [1] turn out when `O[C@@H]1[C@H](O)CCC[C@H]1Nc1nc2ccc(Cn3cnc4cc(OC5COC5)ccc43)cc2s1` [Example 233, (1R,2S,3R)-3-((6-((5-(oxetan-3-yloxy)-1H-benzo[d]imidazol-1-yl)methyl)benzo[d]thiazol-2-yl)amino)cyclohexane-1,2-diol] was run?
A: A (A≤0.01)

Q: And the Kd (PDGFRβ)?
A: ≤ 50 nM

Q: And the Kd (CSF1R [2])?
A: ≤ 5 nM

Q: And the Kd (KIT)?
A: ≤ 100 nM

Q: And the IC50 (CSF1R [3])?
A: ≤ 50 nM

Q: With `CNC(=O)c1ccc2ncc(Cc3ccc4nc(N[C@@H]5CCCC[C@H]5O)sc4c3)n2n1` [Example 143, 3-((2-(((1R,2R)-2-hydroxycyclohexyl)amino)benzo[d]thiazol-6-yl)methyl)-N-methylimidazo[1,2-b]pyridazine-6-carboxamide] as the compound, how does the “Kinase specificity S(10)” value [1] read?
A: B (0.01<B≤0.02)

Q: And the Kd (PDGFRβ)?
A: 500 to 2000 nM

Q: What about the Kd (CSF1R [2]) of the same compound?
A: 5 to 20 nM

Q: And the Kd (KIT)?
A: 500 to 2000 nM

Q: What about the IC50 (CSF1R [3]) of the same compound?
A: 200 to 500 nM

— US9938261B2, “Heterocyclic compounds and methods of use thereof” (AMBIT BIOSCIENCES CORPORATION, priority 2011, dated 2018)
